How the values were obtained:
hERG channel = hERG channel (Homo sapiens (Human), UniProt Q12809); experiment: hERG channel inhibition assay (patch-clamp, CHO cells); format: cell-based; conditions: for IC50 / IC20: CHO hERG cells, whole-cell patch-clamp; for IC20: human, CHO cells stably expressing hERG channels; for hERG IC20/TLR7 IC50 / hERG IC20/TLR8 IC50 / hERG IC20/TLR9 IC50: safety ratio
Protocol: The hERG K^+ channels were cloned in humans and stably expressed in a CHO (Chinese hamster ovary) cell line. CHOhERG cells were used for patch-clamp (voltage-clamp, whole-cell) experiments. Cells were stimulated by a voltage pattern to activate hERG channels and conduct IKhERG currents (rapid delayed outward rectifier potassium current of the hERG channel). After the cells were stabilized for a few minutes, the amplitude and kinetics of IKhERG were recorded at a stimulation frequency of 0.1 Hz (6 bpm). Thereafter, the test compound was added to the preparation at increasing concentrations. For each concentration, an attempt was made to reach a steady-state effect, usually, this was achieved within 3-10 min at which time the next highest concentration was applied. The amplitude and kinetics of IKhERG are recorded in each concentration of the drug which were compared to the control values (taken as 100%). (references: Redfern W S, Carlsson L, Davis A S, Lynch W G, MacKenzie I, Palethorpe S, Siegl P K, Strang I, Sullivan A T, Wallis R, Camm A J, Hammond T G. 2003; Relationships between preclinical cardiac electrophysiology, clinical QT interval prolongation and torsade de pointes for a broad range of drugs: evidence for a provisional safety margin in drug development. Cardiovasc. Res. 58:32-45, Sanguinetti M C, Tristani-Firouzi M. 2006; hERG potassium channels and cardiac arrhythmia. Nature 440:463-469, Webster R, Leishman D, Walker D. 2002; Towards a drug concentration effect relationship for QT prolongation and torsades de pointes. Curr. Opin. Drug Discov. Devel. 5:116-26).

TLR9 = TLR9 (Homo sapiens (Human), UniProt Q9NR96); experiment: Human PBMC cell-based assay, TLR9; conditions: CpG ODN 2216 at 1 μM, overnight, cytokine readout, read-out: hPBMC/TLR9 IC50
Excerpt: (§1) Unlike the HEK reporter cell lines, human peripheral blood mononuclear cell (PBMC) represents primary human immune cells in blood mainly consisting of lymphocytes, monocytes, and dendritic cells. These cells express TLR7, TLR8, or TLR9, and therefore are natural responders to respective ligand stimulation. Upon activation of these TLRs, PBMCs secrete similar cytokines and chemokines in vitro and in vivo, and therefore the in vitro potency of a TLR7/8/9 antagonist in human PBMC is readily translatable to its pharmacodynamics response in vivo.
(§2) Human peripheral blood mononuclear cells (PBMC) were isolated from freshly-drawn lithium-heparinized (Lithium Heparin Plus blood Collection tube, BD Vacutainer®) healthy donor whole blood by density gradient (Ficoll-Paque™ PLUS, GE Healthcare life Sciences). Briefly, […] was diluted with 25 mL PBS (without Ca^2+, Mg^2+) in a 50 mL conical tube with porous barrier (Leucosep tube, Greiner bio-one), where 15.5 mL Ficoll-Paque was under laid after spinning. Tubes were centrifuged for 20 minutes at 800×g (1946 rpm) with the brake in the off position, and PBMC were collected from the buffy coat. Cells were then washed twice in PBS, and red blood cells were lysed by suspension in 2 mL (Red Blood Cell Lysis Buffer, Alfa Aesar) for 5-10 minutes at room temperature. After a final wash in PBS, PBMC were resuspended at a final concentration of 2×10^6 cells/mL in RPMI-1640 media with GlutaMAX™ (Gibco) supplemented with 10% Fetal Bovine Serum (Sigma) and plated at 150 μL/well (3×10^5 cells/well) in tissue culture treated round bottom 96-well plates (Corning Incorporated). Antagonist compounds (compounds of this invention) solubilized and serial diluted in 100% DMSO were added in duplicate to cells to yield a final concentration of 1% DMSO (v/v). PBMC were incubated with antagonist compounds for 30 minutes at 37° C., 5% CO2 before adding various TLR agonist reagents in 48 μL complete media per well as follows (final concentrations indicated): CpG ODN 2216 (InvivoGen) at 1 μM for TLR9, ORN 06/LyoVec (InvivoGen) at 1 μg/mL for TLR8 and R848 (InvivoGen) at 1 μg/mL for TLR7 and TLR8. PBMC were incubated overnight at 37° C. with 5% CO2. Cell culture supernatants were collected, and levels of various human cytokines were assessed by Luminex assay (ProcartaPlex™ Multiplex Immunoassay, Invitrogen) or ELISA procedure according to the manufacturer's recommended protocol (eBioscience, ThermoFisher Scientific). Viability of the cells was also checked with Cell Viability Assay (CellTiter Glo®Luminescent Cell Viability Assay, Promega).

TLR7 and TLR8 = experiment: Human PBMC cell-based assay, TLR7 and TLR8; conditions: R848 at 1 μg/mL, overnight, cytokine readout, read-out: hPBMC/TLR78 IC50
Excerpt: as §1
as §2, with “PBMC were incubated with antagonist compounds for 30 minutes at 37° C., 5% CO2 before adding various TLR agonist reagents in 48 μL complete media per well as follows (final concentrations indicated): CpG ODN 2216 (InvivoGen) at 1 μM for TLR9, ORN 06/LyoVec (InvivoGen) at 1 μg/mL for TLR8 and R848 (InvivoGen) at 1 μg/mL for TLR7 and TLR8. PBMC were incubated overnight at 37° C. with 5% CO2.” left out, “Viability of the cells was also checked with Cell Viability Assay (CellTiter Glo®Luminescent Cell Viability Assay, Promega).” left out

Chain of TLR9 (Q9NR96 26-1032): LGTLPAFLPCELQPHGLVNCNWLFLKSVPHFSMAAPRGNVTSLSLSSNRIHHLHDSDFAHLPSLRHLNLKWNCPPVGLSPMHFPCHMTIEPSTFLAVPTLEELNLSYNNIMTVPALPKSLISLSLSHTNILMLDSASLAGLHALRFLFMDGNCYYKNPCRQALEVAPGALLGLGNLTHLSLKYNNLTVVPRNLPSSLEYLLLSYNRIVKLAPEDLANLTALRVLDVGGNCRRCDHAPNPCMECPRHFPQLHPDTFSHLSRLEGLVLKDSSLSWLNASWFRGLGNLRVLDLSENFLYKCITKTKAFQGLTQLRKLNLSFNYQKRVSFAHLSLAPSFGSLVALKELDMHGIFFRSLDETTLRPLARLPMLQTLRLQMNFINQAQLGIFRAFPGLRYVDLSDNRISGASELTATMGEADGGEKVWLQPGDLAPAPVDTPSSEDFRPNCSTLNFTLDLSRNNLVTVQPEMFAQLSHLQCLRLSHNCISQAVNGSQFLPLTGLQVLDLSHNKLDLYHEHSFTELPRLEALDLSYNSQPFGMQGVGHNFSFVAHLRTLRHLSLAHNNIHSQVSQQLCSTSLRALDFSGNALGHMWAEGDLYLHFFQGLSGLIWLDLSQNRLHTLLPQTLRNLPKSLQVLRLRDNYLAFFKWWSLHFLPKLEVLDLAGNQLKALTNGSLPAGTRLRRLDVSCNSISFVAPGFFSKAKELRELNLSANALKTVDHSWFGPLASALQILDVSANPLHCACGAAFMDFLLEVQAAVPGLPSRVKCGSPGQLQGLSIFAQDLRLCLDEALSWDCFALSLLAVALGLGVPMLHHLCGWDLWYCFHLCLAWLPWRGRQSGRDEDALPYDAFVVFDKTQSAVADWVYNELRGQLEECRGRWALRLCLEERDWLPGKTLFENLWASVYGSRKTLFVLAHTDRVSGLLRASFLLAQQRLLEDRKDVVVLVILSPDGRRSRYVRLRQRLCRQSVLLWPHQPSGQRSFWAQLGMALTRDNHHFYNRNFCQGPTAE
Chain of hERG channel (Q12809 whole entry): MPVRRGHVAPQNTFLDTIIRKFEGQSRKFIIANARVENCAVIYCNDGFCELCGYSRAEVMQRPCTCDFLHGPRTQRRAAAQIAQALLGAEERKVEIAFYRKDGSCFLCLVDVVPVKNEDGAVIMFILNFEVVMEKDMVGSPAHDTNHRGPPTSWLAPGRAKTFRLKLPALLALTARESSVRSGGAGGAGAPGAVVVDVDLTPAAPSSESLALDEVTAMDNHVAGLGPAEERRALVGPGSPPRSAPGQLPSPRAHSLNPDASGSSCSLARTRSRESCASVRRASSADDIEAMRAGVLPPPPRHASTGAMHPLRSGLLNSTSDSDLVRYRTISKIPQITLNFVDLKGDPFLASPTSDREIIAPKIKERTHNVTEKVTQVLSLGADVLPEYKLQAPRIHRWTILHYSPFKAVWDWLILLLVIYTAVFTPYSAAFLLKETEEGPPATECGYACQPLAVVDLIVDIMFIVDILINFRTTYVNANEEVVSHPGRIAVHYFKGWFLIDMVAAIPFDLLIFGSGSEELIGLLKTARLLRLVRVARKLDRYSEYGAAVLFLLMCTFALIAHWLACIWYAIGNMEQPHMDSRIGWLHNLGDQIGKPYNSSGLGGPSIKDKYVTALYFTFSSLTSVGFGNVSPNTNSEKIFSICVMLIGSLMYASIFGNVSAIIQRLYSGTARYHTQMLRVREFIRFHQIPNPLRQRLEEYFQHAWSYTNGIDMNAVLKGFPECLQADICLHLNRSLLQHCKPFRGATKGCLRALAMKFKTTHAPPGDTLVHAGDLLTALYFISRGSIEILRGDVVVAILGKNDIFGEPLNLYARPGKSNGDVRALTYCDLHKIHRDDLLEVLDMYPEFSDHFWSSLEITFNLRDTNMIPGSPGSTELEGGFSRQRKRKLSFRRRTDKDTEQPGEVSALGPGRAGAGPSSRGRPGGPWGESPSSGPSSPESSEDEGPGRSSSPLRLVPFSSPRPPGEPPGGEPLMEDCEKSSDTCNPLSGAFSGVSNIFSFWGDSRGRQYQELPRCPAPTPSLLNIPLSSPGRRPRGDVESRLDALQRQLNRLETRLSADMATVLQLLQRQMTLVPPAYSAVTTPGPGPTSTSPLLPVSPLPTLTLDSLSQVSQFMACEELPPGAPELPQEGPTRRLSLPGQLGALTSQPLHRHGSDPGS

Row | SMILES | IC50 (hERG channel) | IC20 (hERG channel) | hERG IC20/TLR7 IC50 (hERG channel) | hERG IC20/TLR8 IC50 (hERG channel) | hERG IC20/TLR9 IC50 (hERG channel) | IC50 (TLR9) | IC50 (TLR7 and TLR8)
1 | Cc1cn2cc(-c3ccc(N4CCC(N)CC4)nc3C(C)C)cc(C)c2n1 [Example 4, 1-[5-(2,8-dimethylimidazo[1,2-a]pyridin-6-yl)-6-isopropyl-2-pyridyl]piperidin-4-amine] | > 10 µM | 4.21 µM | 471.9 | 1448.2 | 27.2 | – | –
2 | Cc1cc(-c2cc(C)c3nccn3c2)cnc1N1CCC(N2CCN(C)CC2)CC1 [Example 9, 8-methyl-6-[5-methyl-6-[4-(4-methylpiperazin-1-yl)-1-piperidyl]-3-pyridyl]imidazo[1,2-a]pyridine] | – | – | – | – | – | 0.5 µM | 0.008 µM
3 | Cc1cn2cc(-c3ccc(N4CCC(N5CC(C)(N)C5)CC4)nc3C(F)F)cc(C)c2n1 [Example 12, 1-[1-[6-(difluoromethyl)-5-(2,8-dimethylimidazo[1,2-a]pyridin-6-yl)-2-pyridyl]-4-piperidyl]-3-methyl-azetidin-3-amine] | – | – | – | – | – | 0.29 µM | 0.016 µM
4 | CCc1nc(N2CCC(N3CC4(CNCCO4)C3)CC2)ccc1-c1cc(C)c2nccn2c1 [Example 14, 2-[1-[6-ethyl-5-(8-methylimidazo[1,2-a]pyridin-6-yl)-2-pyridyl]-4-piperidyl]-5-oxa-2,8-diazaspiro[3.5]nonane] | – | – | – | – | – | 0.25 µM | –
5 | CCc1nc(N2CCC(N3C[C@@H](N)[C@H](OC)C3)CC2)ccc1-c1cc(C)c2nccn2c1 [Example 15, (3R,4R)-1-[1-[6-ethyl-5-(8-methylimidazo[1,2-a]pyridin-6-yl)-2-pyridyl]-4-piperidyl]-4-methoxy-pyrrolidin-3-amine] | > 20 µM | 8.36 µM | 2144.2 | 2090 | 38.7 | 0.47 µM | –
6 | CCc1nc(N2CCC(N3C[C@@H](N)[C@H](OC)C3)CC2)ccc1-c1cc(C)c2nc(C)cn2c1 [Example 17, (3R,4R)-1-[1-[5-(2,8-dimethylimidazo[1,2-a]pyridin-6-yl)-6-ethyl-2-pyridyl]-4-piperidyl]-4-methoxy-pyrrolidin-3-amine] | – | – | – | – | – | 0.1 µM | –
7 | CCc1nc(N2CCC(C)(N)CC2)ccc1-c1cc(C)c2nc(C)cn2c1 [Example 20, 1-[5-(2,8-dimethylimidazo[1,2-a]pyridin-6-yl)-6-ethyl-2-pyridyl]-4-methyl-piperidin-4-amine] | > 20 µM | > 10 µM | >1666.7 | >636.9 | >44.2 | 0.5 µM | –
8 | COc1nc(N2CCC(N3CCNCC3)CC2)ccc1-c1cc(C)c2nccn2c1 [Example 25, 6-[2-methoxy-6-(4-piperazin-1-yl-1-piperidyl)-3-pyridyl]-8-methyl-imidazo[1,2-a]pyridine] | > 20 µM | 5.78 µM | 837.6 | 516.0 | 62.8 | 0.13 µM | 0.0045 µM

Reference: patent US20230279001A1, “IMIDAZO[1,2-A]PYRIDINE COMPOUNDS FOR THE TREATMENT OF AUTOIMMUNE DISEASE” (Hoffmann-La Roche Inc., priority 2020, published 2023)
